From patent publication US20160220464A1 (WUHAN OPTICS VALLEY BRIDGEBIOMED INTERNATIONAL CORPORATION, priority 2013, published 2016) come the findings set out here.

In data set [1] the test system is human aortic smooth muscle cells (HASMC). The data set is described as follows: PG subtype secretion by EIA in HASMC. As to conditions: 10 nM, 1 μM BK set as 100%. It counts as cell-based.
The nature of data set [2]: Transdermal experiment, modified Franz diffusion pool with HPLC. The data set is classed as in vitro ADME, mice. Here is the method: To explore the optimized dosage form and preparation technology of BK B2 receptor agonist, we selected YLB-01, which has the long-term stability for preservation, as a sample from three agonists (YLB-01, YLB-02, YLB-03) and prepared three kinds of dosage form, analyzed by transdermal experiments and high-performance liquid phase (HPLC) content analysis. Three dosage forms (liniments, gels and ointments) of […] were prepared in different concentrations (0.03%, 0.3% and 3%). Then, different proportional of transdermal promoters was added to perform transdermal experiments. The transdermal effects of three kinds of YLB-01 formulation were evaluated by the modified Franz diffusion pool. Cumulative transmittance of liniments, gels and ointments in 0.3% concentration of YLB-01 for 9 hours was measured respectively. Results: (1) The best transdermal promoter ratio of liniments, gels and ointments were 2% propylene glycol+2% azone, 4% propylene glycol, and 5% propylene glycol+2% azone. (2) 9 hours of cumulative transmittance of 0.03%, 0.3%, 3% liniments were 4.23%, 10.96% and 12.17%, respectively; 9 hours of cumulative transmittance of 0.03%, 0.3%, 3% gels were 2.29%, 4.43% and 13.57%, respectively; 9 hours of cumulative transmittance of 0.03%, 0.3%, 3% ointments were 2.08%, 1.12% and 0.73%, respectively. Conclusion: The different contents of […] liniments, gels and ointments are all have some transdermal abilities, and the abilities are: liniments>gels>ointments.
To determine the optimal dosage form of YLB-01 and best transdermal promoter, we plan to use transdermal test combined with HPLC content analysis as screening basis, research on dosage forms and transdermal promoter to achieve a stable and reliable preparation. The samples were analyzed by HPLC on an Agilent TC-C18 column (150 mm×4.6 mm, 5 microns). The mobile phases were methanol and 0.02 mol/L potassium dihydrogen phosphate buffer (66:34, pH was adjusted to 4 with phosphoric acid). Flow rate: 1 ml/min; Column temperature: 30° C. Excitation wavelength and fluorescent wavelength of fluorescence detection were 267 nm and 380 nm, respectively. Under this condition, YLB-01 retention time was 3.898 min, target compounds peak shape is good which could be effectively separated, and no impurity peak, baseline is smooth (shown as FIG. 6).
The abdominal hair of mice was removed. The mice were sacrificed by spinal dislocation. The subcutaneous fat was removed, and the depilous skin of abdomen was reserved in 4° C. physiological saline. Skin was fixed between the supply room and reception room facing the supply room. The effective permeability area was 4 cm^2. Receiving liquid was physiological saline, and receiving chamber volume V were 25 ml. 1.0 g of the tested sample was coated evenly on the effective skin surface with the electromagnetic stirrer run at a speed of 300 r/min. To take out the receiving liquid in 1, 2, 3, 4, 5, 6, 7, 8, 9 h, 0.5 ml/h (Complementing the same quantity each time), the samples were centrifuged and the supernatant was took for HPLC analysis.
After the detection, the cumulative transmittance P (%) was calculated:
V: the volume of receiving liquid in receiving room; Ci: drug concentration in receiving liquid between the time to last time of the i time; Cn: drug concentration in the receiving liquid when the n time taking the sample; M: drug content in the sample.

As for `CNC(=O)c1ccc(CCC(=O)NCC(=O)N(C)c2ccc(Cl)c(COc3cccc4c3nc(OC)n4Cc3ccccn3)c2Cl)cc1` [YLB-01, 4-(3-2-((2,4-dichloro-3-((2-methoxy-1-(pyridine-2ylmethyl)-1H-benzo[d]imidazol-4-yloxy)methyl)phenyl)(methyl)amino-2-oxoethylamino)-3-oxopropyl)-N-methylbenzamid], the PGD2 entry in data set [1] was “undetectable”. Moreover, the PGE2 in data set [1] is on record as 34.64 ± 12.27%. In data set [1], the PGF-2a came out at 5.68 ± 2.08%. For the same compound, the “Cumulative Penetration Rate of 9 Hours” value was 2.29% in data set [2] (gels, 0.03% YLB-01, 4% propylene glycol, 0% azone); 4.43% in data set [2] (gels, 0.3% YLB-01, 4% propylene glycol, 0% azone); 13.57% in data set [2] (gels, 3% YLB-01, 4% propylene glycol, 0% azone); 4.23% in data set [2] (liniments, 0.03% YLB-01, 2% propylene glycol + 2% azone); 10.96% in data set [2] (liniments, 0.3% YLB-01, 2% propylene glycol + 2% azone); 12.17% in data set [2] (liniments, 3% YLB-01, 2% propylene glycol + 2% azone). The “Cumulative Penetration Rate of 9 Hours” value in data set [2] (ointments, 0.03% YLB-01, 5% propylene glycol + 2% azone) is listed as 2.08%; in data set [2] (ointments, 0.3% YLB-01, 5% propylene glycol + 2% azone), 1.12%; in data set [2] (ointments, 3% YLB-01, 5% propylene glycol + 2% azone) it was 0.73%.
